Measured values from patent publication US11214803B2, “Modulators of YAP1 expression” (Ionis Pharmaceuticals, Inc., priority 2019, dated 2022).
Strand notation (5' to 3'): a small letter for the sugar, then the base; units joined by * are phosphorothioate-linked, units joined directly phosphodiester-linked; [ ] holds rarer units or linkages, { } end groups; capitals alone tell only the bases. k = constrained ethyl (cEt); [5mC] = 5-methylcytosine; d = 2'-deoxy (DNA)

Experiments:
SNU-1076 cells = assay: Cell proliferation assay in SNU-1076 cells, CellTiter-Glo (Example 45); format: cell-based, human; conditions: free uptake, approximately 144 hours
Method: (§1) Modified oligonucleotides described in the studies above were tested at various doses in upper aerodigestive tract/laryngeal squamous cell carcinoma line SNU-1076. A control oligonucleotide 792169, described herein above, was also tested.
Cultured SNU-1076 cells at a density of 1000 cells/well were treated using free uptake with modified oligonucleotides diluted to concentrations described in the tables below. After approximately 144 hours, cell proliferation was measured using the luminescent cell viability CellTiter-Glo® 2.0 Assay (Promega). Results are presented in the tables below as percent control of the amount of luminescence in samples treated with modified oligonucleotides relative to untreated control cells (% UTC).

SCC-15 cells = assay: Cell proliferation assay in SCC-15 cells, CellTiter-Glo (Example 41); format: cell-based, human; conditions: free uptake, approximately 144 hours
Method: Modified oligonucleotides described in the studies above were tested at various doses in tongue squamous cell carcinoma cell line SCC-15. A control oligonucleotide 792169, described herein above, was also tested.
Cultured SCC-15 cells at a density of 1000 cells/well were treated using free uptake with modified oligonucleotides diluted to concentrations described in the tables below. After approximately 144 hours, cell proliferation was measured using the luminescent cell viability CellTiter-Glo® 2.0 Assay (Promega). Results are presented in the tables below as percent control of the amount of luminescence in samples treated with modified oligonucleotides relative to untreated control cells (% UTC).

Yap1 mRNA [1] = assay: Yap1 mRNA in SCC-9 cells, RNA analysis (Example 40); format: cell-based, human; conditions: free uptake, approximately 48 hours
Method: Modified oligonucleotides described in the studies above were tested at various doses in tongue squamous cell carcinoma cell line SCC-9. A control oligonucleotide 792169, described herein above, was also tested.
Cultured SCC-9 cells at a density of 5000 cells per well were treated using free uptake with modified oligonucleotides diluted to concentrations described in the tables below. After approximately 48 hours, Yap1 mRNA levels were measured as previously described using the Human Yap1 primer-probe set RTS4814. Yap1 mRNA levels were normalized to actin-beta content, as measured by primer probe set RTS5002. Results are presented in the tables below as percent control of the amount of Yap1 mRNA relative to untreated control cells (% UTC).

Yap1 mRNA [2] = assay: Yap1 mRNA in SNU-1076 cells, RNA analysis (Example 45); format: cell-based, human; conditions: free uptake, approximately 48 hours
Method: as §1
Cultured SNU-1076 cells at a density of 5000 cells per well were treated using free uptake with modified oligonucleotides diluted to concentrations described in the tables below. After approximately 48 hours, Yap1 mRNA levels were measured as previously described using the Human Yap1 primer-probe set RTS4814. Yap1 mRNA levels were normalized to actin-beta content, as measured by primer probe set RTS5002. Results are presented in the tables below as percent control of the amount of Yap1 mRNA relative to untreated control cells (% UTC).

Yap1 mRNA [3] = assay: Yap1 mRNA in BICR56 cells, RNA analysis (Example 33); format: cell-based, human; conditions: free uptake, approximately 48 hours
Method: Modified oligonucleotides described in the studies above were tested at various doses in squamous cell carcinoma adherent keratinocyte cell line BICR56. A control oligonucleotide 792169 was also tested.
Cultured BICR56 cells at a density of 5000 cells per well were treated using free uptake with modified oligonucleotides diluted to concentrations described in the tables below. After approximately 48 hours, Yap1 mRNA levels were measured as previously described using the Human Yap1 primer-probe set RTS4814. Yap1 mRNA levels were normalized to actin-beta content, as measured by primer probe set RTS5002. Results are presented in the tables below as percent control of the amount of Yap1 mRNA relative to untreated control cells (% UTC).

CAL33 cells = assay: Cell proliferation assay in CAL33 cells, CellTiter-Glo (Example 36); format: cell-based, human; conditions: free uptake, approximately 144 hours
Method: Modified oligonucleotides described in the studies above were tested at various doses in tongue squamous cell carcinoma line CAL33. A control oligonucleotide 792169, described herein above, was also tested.
Cultured CAL33 cells at a density of 1000 cells/well were treated using free uptake with modified oligonucleotides diluted to concentrations described in the tables below. After approximately 144 hours, cell proliferation was measured using the luminescent cell viability CellTiter-Glo® 2.0 Assay (Promega). Results are presented in the tables below as percent control of the amount of luminescence in samples treated with modified oligonucleotides relative to untreated control cells (% UTC).

SCC-25 cells = assay: Cell proliferation assay in SCC-25 cells, CellTiter-Glo (Example 42); format: cell-based, human; conditions: free uptake, approximately 144 hours
Method: Modified oligonucleotides described in the studies above were tested at various doses in tongue squamous cell carcinoma cell line SCC-25. A control oligonucleotide 792169, described herein above, was also tested.
Cultured SCC-25 cells at a density of 1000 cells/well were treated using free uptake with modified oligonucleotides diluted to concentrations described in the tables below. After approximately 144 hours, cell proliferation was measured using the luminescent cell viability CellTiter-Glo® 2.0 Assay (Promega). Results are presented in the tables below as percent control of the amount of luminescence in samples treated with modified oligonucleotides relative to untreated control cells (% UTC).

[4] = Tolerability in CD-1 mice, body and organ weights (Example 19); format: in vivo; conditions: male CD-1 mice, 50 mg/kg s.c. twice a week for four weeks (8 treatments), end of study (day 26)
Method: Groups of four male CD-1 mice at 4-6 weeks of age (obtained from Charles River) were injected subcutaneously twice a week for four weeks (for a total of 8 treatments) with 50 mg/kg of modified oligonucleotides. One group of male CD-1 mice was injected with PBS. Mice were euthanized on day 26 post start of treatment (24 hrs following the final administration).
Body weights of CD-1 mice were measured at the end of the study, and the average body weight for each group is presented in the table below. Modified oligonucleotides that caused any changes in organ weights outside the expected range for modified oligonucleotides were excluded from further studies.

Substance: 715487 (kA*kT*kT*dA*d[5mC]*dT*dT*d[5mC]*dA*dT*dA*dG*d[5mC]*kT*kT*kA) [compound 715487]
- Antiproliferative effect (cell proliferation, luminescence) (SNU-1076 cells; 0.04 μM): 91 % UTC
- Antiproliferative effect (cell proliferation, luminescence) (SNU-1076 cells; 0.2 μM): 90 % UTC
- Antiproliferative effect (cell proliferation, luminescence) (SNU-1076 cells; 1 μM): 86 % UTC
- Antiproliferative effect (cell proliferation, luminescence) (SNU-1076 cells; 5 μM): 79 % UTC
- Antiproliferative effect (cell proliferation, luminescence) (SCC-15 cells; 0.04 μM): 87 % UTC
- Antiproliferative effect (cell proliferation, luminescence) (SCC-15 cells; 0.2 μM): 66 % UTC
- Antiproliferative effect (cell proliferation, luminescence) (SCC-15 cells; 1 μM): 47 % UTC
- Antiproliferative effect (cell proliferation, luminescence) (SCC-15 cells; 5 μM): 28 % UTC
- human Yap1 mRNA expression (Yap1 mRNA [1]; 0.04 μM): 74 % UTC
- human Yap1 mRNA expression (Yap1 mRNA [1]; 0.2 μM): 44 % UTC
- human Yap1 mRNA expression (Yap1 mRNA [1]; 1 μM): 21 % UTC
- human Yap1 mRNA expression (Yap1 mRNA [1]; 5 μM): 11 % UTC
- human Yap1 mRNA expression (Yap1 mRNA [2]; 0.04 μM): 89 % UTC
- human Yap1 mRNA expression (Yap1 mRNA [2]; 0.2 μM): 67 % UTC
- human Yap1 mRNA expression (Yap1 mRNA [2]; 1 μM): 31 % UTC
- human Yap1 mRNA expression (Yap1 mRNA [2]; 5 μM): 11 % UTC
- human Yap1 mRNA expression (Yap1 mRNA [3]; 0.04 μM): 68 % UTC
- human Yap1 mRNA expression (Yap1 mRNA [3]; 0.2 μM): 28 % UTC
- human Yap1 mRNA expression (Yap1 mRNA [3]; 1 μM): 16 % UTC
- human Yap1 mRNA expression (Yap1 mRNA [3]; 5 μM): 11 % UTC
- Antiproliferative effect (cell proliferation, luminescence) (CAL33 cells; 0.04 μM): 89 % UTC
- Antiproliferative effect (cell proliferation, luminescence) (CAL33 cells; 0.2 μM): 79 % UTC
- Antiproliferative effect (cell proliferation, luminescence) (CAL33 cells; 1 μM): 61 % UTC
- Antiproliferative effect (cell proliferation, luminescence) (CAL33 cells; 5 μM): 37 % UTC
- Antiproliferative effect (cell proliferation, luminescence) (SCC-25 cells; 0.08 μM): 82 % UTC
- Antiproliferative effect (cell proliferation, luminescence) (SCC-25 cells; 0.4 μM): 48 % UTC
- Antiproliferative effect (cell proliferation, luminescence) (SCC-25 cells; 2 μM): 25 % UTC
- Antiproliferative effect (cell proliferation, luminescence) (SCC-25 cells; 10 μM): 15 % UTC

Substance: 1198439 (AGTGTATGTCAGAAGA; sugar, 5-methylcytosine, phosphorothioate modifications, further chemistry not given here) [compound 1198439]
- Kidney weight [4]: 0.51 g
- Liver weight [4]: 2.03 g
- Spleen weight [4]: 0.25 g
- body weight [4]: 36 g

Substance: 1198872 (TGTATGTCAGAAGAGT; chemically modified gapmer, further chemistry not given here) [compound 1198872]
- Kidney weight [4]: 0.40 g
- Liver weight [4]: 1.84 g
- Spleen weight [4]: 0.16 g
- body weight [4]: 34 g

Substance: CGCCGATAAGGTACAC (cEt gapmer, phosphorothioate backbone, further chemistry not given here) [ION 792169, reference compound]
- Antiproliferative effect (cell proliferation, luminescence) (SNU-1076 cells; 0.04 μM): 97 % UTC
- Antiproliferative effect (cell proliferation, luminescence) (SNU-1076 cells; 0.2 μM): 104 % UTC
- Antiproliferative effect (cell proliferation, luminescence) (SNU-1076 cells; 1 μM): 106 % UTC
- Antiproliferative effect (cell proliferation, luminescence) (SNU-1076 cells; 5 μM): 108 % UTC
- Antiproliferative effect (cell proliferation, luminescence) (SCC-15 cells; 0.04 μM): 93 % UTC
- Antiproliferative effect (cell proliferation, luminescence) (SCC-15 cells; 0.2 μM): 92 % UTC
- Antiproliferative effect (cell proliferation, luminescence) (SCC-15 cells; 1 μM): 89 % UTC
- Antiproliferative effect (cell proliferation, luminescence) (SCC-15 cells; 5 μM): 71 % UTC
- human Yap1 mRNA expression (Yap1 mRNA [1]; 0.04 μM): 86 % UTC
- human Yap1 mRNA expression (Yap1 mRNA [1]; 0.2 μM): 94 % UTC
- human Yap1 mRNA expression (Yap1 mRNA [1]; 1 μM): 96 % UTC
- human Yap1 mRNA expression (Yap1 mRNA [1]; 5 μM): 101 % UTC
- human Yap1 mRNA expression (Yap1 mRNA [2]; 0.04 μM): 89 % UTC
- human Yap1 mRNA expression (Yap1 mRNA [2]; 0.2 μM): 98 % UTC
- human Yap1 mRNA expression (Yap1 mRNA [2]; 1 μM): 102 % UTC
- human Yap1 mRNA expression (Yap1 mRNA [2]; 5 μM): 107 % UTC
- human Yap1 mRNA expression (Yap1 mRNA [3]; 0.04 μM): 99 % UTC
- human Yap1 mRNA expression (Yap1 mRNA [3]; 0.2 μM): 92 % UTC
- human Yap1 mRNA expression (Yap1 mRNA [3]; 1 μM): 85 % UTC
- human Yap1 mRNA expression (Yap1 mRNA [3]; 5 μM): 97 % UTC
- Antiproliferative effect (cell proliferation, luminescence) (CAL33 cells; 0.04 μM): 92 % UTC
- Antiproliferative effect (cell proliferation, luminescence) (CAL33 cells; 0.2 μM): 93 % UTC
- Antiproliferative effect (cell proliferation, luminescence) (CAL33 cells; 1 μM): 81 % UTC
- Antiproliferative effect (cell proliferation, luminescence) (CAL33 cells; 5 μM): 67 % UTC
- Antiproliferative effect (cell proliferation, luminescence) (SCC-25 cells; 0.08 μM): 97 % UTC
- Antiproliferative effect (cell proliferation, luminescence) (SCC-25 cells; 0.4 μM): 101 % UTC
- Antiproliferative effect (cell proliferation, luminescence) (SCC-25 cells; 2 μM): 96 % UTC
- Antiproliferative effect (cell proliferation, luminescence) (SCC-25 cells; 10 μM): 92 % UTC
